Test results published in patent publication US11766425B2, “Antibiotic combination therapies” (BIOVERSYS AG, priority 2019, dated 2023).
Like-named read-outs stand apart in the source and are kept apart here.

Key:
Type in all cases: cell-based, Acinetobacter baumannii
[1] = tested on: A. baumannii 401046-18; assay: broth microdilution checkerboard MIC/synergy; details: for MIC: Acinetobacter baumannii, 40104618, strain 401046-18, read-out: MICs alone
Procedure: (§1) Checkerboards were performed according to the CLSI parameters used for microbroth dilution MIC5. CA-MHB, iron-depleted CA-MHB (ID-CA-MHB) or RPMI supplemented with 10% FCS medium were used as specified and ID-CA-MHB was prepared according to CLSI guidelines. […] FICI is calculated as follows: […]

[2] = tested on: A. baumannii 401255-18; assay: broth microdilution checkerboard MIC/synergy; details: for MIC: Acinetobacter baumannii, 40125518, strain 401255-18, read-out: MICs alone
Procedure: as §1

[3] = tested on: A. baumannii 402292-17; assay: broth microdilution checkerboard MIC/synergy; details: for MIC: Acinetobacter baumannii, 40229217, strain 402292-17, read-out: MICs alone
Procedure: as §1

[4] = tested on: A. baumannii 402608-17; assay: broth microdilution checkerboard MIC/synergy; details: for MIC: Acinetobacter baumannii, 40260817, strain 402608-17, read-out: MICs alone
Procedure: as §1

[5] = tested on: A. baumannii ACC00535; assay: broth microdilution checkerboard MIC/synergy; details: strain ACC00535; rifabutin/SPR741 in combination
Procedure: as §1

[6] = tested on: A. baumannii HUMC1; assay: broth microdilution checkerboard MIC/synergy; details: strain HUMC1
Procedure: as §1

[7] = tested on: A. baumannii IHMA1013816; assay: broth microdilution checkerboard MIC/synergy; details: strain IHMA1013816
Procedure: as §1

[8] = tested on: A. baumannii IHMA690517; assay: broth microdilution checkerboard MIC/synergy; details: strain IHMA690517
Procedure: as §1

[9] = tested on: A. baumannii IHMA863866; assay: broth microdilution checkerboard MIC/synergy; details: strain IHMA863866
Procedure: as §1

[10] = tested on: A. baumannii IHMA867231; assay: broth microdilution checkerboard MIC/synergy; details: for MIC: Acinetobacter baumannii, IHMA867231, strain IHMA867231, read-out: MICs alone
Procedure: as §1

[11] = tested on: A. baumannii IHMA919656; assay: broth microdilution checkerboard MIC/synergy; details: strain IHMA919656
Procedure: as §1

[12] = tested on: A. baumannii UNT087-1; assay: broth microdilution checkerboard MIC/synergy
Procedure: as §1

[13] = tested on: A. baumannii UNT091-1; assay: broth microdilution checkerboard MIC/synergy
Procedure: as §1

[14] = tested on: A. baumannii UNT191-1; assay: broth microdilution checkerboard MIC/synergy
Procedure: as §1

[15] = tested on: A. baumannii UNT238-1; assay: broth microdilution checkerboard MIC/synergy; details: strain UNT238-1
Procedure: as §1

[16] = tested on: A. baumannii UNT239-1; assay: broth microdilution checkerboard MIC/synergy; details: strain UNT239-1
Procedure: as §1

[17] = tested on: A. baumannii LAC-4 strain; assay: broth microdilution checkerboard MIC/synergy; details: strain LAC-4
Procedure: as §1
The checkerboards were performed in CA-MHB or ID-CA-MHB for cefiderocol.

[18] = tested on: panel of MDR clinical isolates of A. baumannii
Procedure: as §1

[19] = antibiotic alone, rifabutin/colistin checkerboard, CA-MHB
[20] = rifabutin alone, rifabutin/SPR741 checkerboard
[21] = antibiotic alone, rifabutin/cefiderocol checkerboard
[22] = rifabutin/SPR741 in combination
[23] = rifabutin/cefiderocol in combination
[24] = rifabutin/colistin in combination, CA-MHB
[25] = rifabutin/cefiderocol in combination, ID-CA-MHB

SMILES: CO[C@H]1/C=C/O[C@@]2(C)Oc3c(C)c(O)c4c(c3C2=O)C2=NC3(CCN(CC(C)C)CC3)NC2=C(NC(=O)/C(C)=C\C=C\[C@H](C)[C@H](O)[C@@H](C)[C@@H](O)[C@@H](C)[C@H](OC(C)=O)[C@@H]1C)C4=O [Rifabutin, rifabutin]
- MIC ([1]; antibiotic alone, rifabutin/cefiderocol checkerboard, ID-CA-MHB): 32 µg/mL
- MIC [1, 19]: 64 µg/mL
- MIC [1, 20]: > 32 µg/mL
- MICs combi / in combination ([1]; strain 401046-18, rifabutin/SPR741 in combination): 2 mg/L
- MICs combi ([1]; strain 401046-18, rifabutin/cefiderocol in combination, ID-CA-MHB): 16 mg/L
- MICs combi ([1]; strain 401046-18, rifabutin/colistin in combination, CA-MHB): 1 mg/L
- MIC [2, 21]: 32 µg/mL
- MIC [2, 19]: 128 µg/mL
- MIC [2, 20]: > 32 µg/mL
- MICs combi / in combination ([2]; strain 401255-18, rifabutin/SPR741 in combination): 2 mg/L
- MICs combi ([2]; strain 401255-18, rifabutin/cefiderocol in combination): 16 mg/L
- MICs combi ([2]; strain 401255-18, rifabutin/colistin in combination, CA-MHB): 2 mg/L
- MIC [3, 21]: > 128 µg/mL
- MIC [3, 19]: > 128 µg/mL
- MIC [3, 20]: > 32 µg/mL
- MICs combi / in combination ([3]; strain 402292-17, rifabutin/SPR741 in combination): 2 mg/L
- MICs combi ([3]; strain 402292-17, rifabutin/cefiderocol in combination): 128 mg/L
- MICs combi ([3]; strain 402292-17, rifabutin/colistin in combination, CA-MHB): 4 mg/L
- MIC [4, 21]: 128 µg/mL
- MIC [4, 19]: 128 µg/mL
- MIC [4, 20]: > 32 µg/mL
- MICs combi / in combination ([4]; strain 402608-17, rifabutin/SPR741 in combination): 2 mg/L
- MICs combi ([4]; strain 402608-17, rifabutin/cefiderocol in combination): 32 mg/L
- MICs combi ([4]; strain 402608-17, rifabutin/colistin in combination, CA-MHB): 2 mg/L
- MICs combi / in combination [5]: 0.5 mg/L
- MICs alone [6, 19]: 4 mg/L
- MICs alone [6, 20]: 4 mg/L
- MICs combi / in combination [6, 22]: 0.25 mg/L
- MICs combi [6, 23]: 4 mg/L
- MICs combi [6, 24]: 0.125 mg/L
- MICs combi / in combination [7, 22]: 2 mg/L
- MICs combi [7, 23]: 4 mg/L
- MICs combi [7, 24]: 0.125 mg/L
- MICs combi / in combination [8, 22]: 1 mg/L
- MICs combi [8, 23]: 4 mg/L
- MICs combi [8, 24]: 0.06 mg/L
- MICs alone [9, 19]: 4 mg/L
- MICs alone [9, 20]: 4 mg/L
- MICs combi / in combination [9, 22]: 2 mg/L
- MICs combi [9, 23]: 0.125 mg/L
- MICs combi [9, 24]: 0.06 mg/L
- MIC [10, 21]: > 128 µg/mL
- MIC [10, 19]: > 128 µg/mL
- MIC [10, 20]: > 32 µg/mL
- MICs combi / in combination ([10]; strain IHMA867231, rifabutin/SPR741 in combination): >32 mg/L
- MICs combi ([10]; strain IHMA867231, rifabutin/cefiderocol in combination): 128 mg/L
- MICs combi ([10]; strain IHMA867231, rifabutin/colistin in combination, CA-MHB): 2 mg/L
- MICs combi / in combination [11, 22]: 1 mg/L
- MICs combi [11, 23]: 4 mg/L
- MICs combi [11, 24]: 0.03 mg/L
- MIC ([12]; Acinetobacter baumannii, UNT0871, strain UNT087-1, antibiotic alone, rifabutin/colistin checkerboard, CA-MHB, read-out: MICs alone): 16 µg/mL
- MICs combi / in combination ([12]; strain UNT087-1, rifabutin/SPR741 in combination): 0.25 mg/L
- MICs combi ([12]; strain UNT087-1, rifabutin/cefiderocol in combination): 4 mg/L
- MICs combi ([12]; strain UNT087-1, rifabutin/colistin in combination, CA-MHB): 0.5 mg/L
- MIC ([13]; Acinetobacter baumannii, UNT0911, strain UNT091-1, rifabutin alone, rifabutin/SPR741 checkerboard, read-out: MICs alone): 0.25 µg/mL
- MICs combi / in combination ([13]; strain UNT091-1, rifabutin/SPR741 in combination): 0.06 mg/L
- MICs combi ([13]; strain UNT091-1, rifabutin/cefiderocol in combination): 2 mg/L
- MICs combi ([13]; strain UNT091-1, rifabutin/colistin in combination, CA-MHB): <0.03 mg/L
- MIC ([14]; Acinetobacter baumannii, UNT1911, strain UNT191-1, antibiotic alone, rifabutin/colistin checkerboard, CA-MHB, read-out: MICs alone): 16 µg/mL
- MICs combi / in combination ([14]; strain UNT191-1, rifabutin/SPR741 in combination): 0.5 mg/L
- MICs combi ([14]; strain UNT191-1, rifabutin/cefiderocol in combination, ID-CA-MHB): 0.5 mg/L
- MICs combi ([14]; strain UNT191-1, rifabutin/colistin in combination, CA-MHB): <0.03 mg/L
- MICs combi / in combination [15, 22]: 0.125 mg/L
- MICs combi [15, 25]: 4 mg/L
- MICs combi [15, 24]: 2 mg/L
- MICs alone [16, 19]: 4 mg/L
- MICs alone [16, 20]: 4 mg/L
- MICs combi / in combination [16, 22]: 0.25 mg/L
- MICs combi [16, 25]: 1 mg/L
- MICs combi [16, 24]: 1 mg/L
- MICs alone [17, 19]: 4 mg/L
- MICs alone [17, 20]: 4 mg/L
- MICs combi / in combination [17, 22]: 0.06 mg/L
- MICs combi [17, 25]: 1 mg/L
- MICs combi [17, 24]: 0.016 mg/L
- rifabutin combination MICs ([18]; in combination with SPR741, most of the strains): 0.125 to 2 mg/L
- shift in rifabutin MIC ([18]; in combination with colistin, isolates with a mutation in the rpoB gene): ≥ 32 fold
